Where two headings read alike, the source gives them in different places.

Holding throughout (format): in vivo
Test [1] relates to Leptosphaeria nodorum. The experiment in a line: Fungicidal activity: wheat glume blotch (LEPTNO). The conditions noted are these: Parastagonospora nodorum, 24 h, 1 Day Protectant, read-out: Disease Control LEPTNO 1 DP. The method, then: Technical grades of materials were dissolved in acetone, which were then mixed with nine volumes of water containing 110 ppm Triton X-100. The fungicide solutions were applied onto wheat seedlings using an automated booth sprayer to run-off. All sprayed plants were allowed to air dry prior to further handling. Wheat plants (variety Yuma) were grown from seed in a greenhouse in 50% mineral soil/50% soil-less Metro mix until the first leaf was fully emerged, with 7-10 seedlings per pot. These plants were inoculated with an aqueous spore suspension of Septoria tritici either prior to or after fungicide treatments. After inoculation the plants were kept in 100% relative humidity (one day in a dark dew chamber followed by two to three days in a lighted dew chamber at 20° C.) to permit spores to germinate and infect the leaf. The plants were then transferred to a greenhouse set at 20° C. for disease to develop. When disease symptoms were fully expressed on the 1st leaves of untreated plants, infection levels were assessed on a scale of 0 to 100 percent disease severity. Percent disease control was calculated using the ratio of disease severity on treated plants relative to untreated plants. Evaluation of Fungicidal Activity: Wheat Glume Blotch (Leptosphaeria nodorum; Bayer Code […]) Wheat plants (variety Yuma) were grown from seed in a greenhouse in 50% mineral soil/50% soil-less Metro mix until the first leaf was fully emerged, with 7-10 seedlings per pot. These plants were inoculated with an aqueous spore suspension of Leptosphaeria nodorum 24 hr after fungicide treatments. After inoculation the plants were kept in 100% relative humidity (one day in a dark dew chamber followed by two days in a lighted dew chamber at 20° C.) to permit spores to germinate and infect the leaf. The plants were then transferred to a greenhouse set at 20° C. for disease to develop. Fungicide formulation, application and disease assessment followed the procedures as described in the Example A.

In test [2] the test system is Magnaporthe grisea; anamorph: Pyricularia oryzae. The experiment in a line: whole plant or invertebrate. Conditions: 24 h, read-out: Disease Control PYRIOR 1 DP.
Test [3] has as its system Cercospora beticola. The experiment in a line: Fungicidal activity: leaf spot of sugar beets (CERCBE). Conditions: 24 h, 1 Day Protectant, sugar beet, read-out: Disease Control CERCBE 1DP. The method, then:
Technical grades of materials were dissolved in acetone, which were then mixed with nine volumes of water containing 110 ppm Triton X-100. The fungicide solutions were applied onto wheat seedlings using an automated booth sprayer to run-off. All sprayed plants were allowed to air dry prior to further handling. Wheat plants (variety Yuma) were grown from seed in a greenhouse in 50% mineral soil/50% soil-less Metro mix until the first leaf was fully emerged, with 7-10 seedlings per pot. These plants were inoculated with an aqueous spore suspension of Septoria tritici either prior to or after fungicide treatments. After inoculation the plants were kept in 100% relative humidity (one day in a dark dew chamber followed by two to three days in a lighted dew chamber at 20° C.) to permit spores to germinate and infect the leaf. The plants were then transferred to a greenhouse set at 20° C. for disease to develop. When disease symptoms were fully expressed on the 1st leaves of untreated plants, infection levels were assessed on a scale of 0 to 100 percent disease severity. Percent disease control was calculated using the ratio of disease severity on treated plants relative to untreated plants. Evaluation of Fungicidal Activity: Leaf Spot of Sugar Beets (Cercospora beticola; Bayer Code CERCBE) Sugar beet plants (variety HH88) were grown in soil-less Metro mix and trimmed regularly to maintain a uniform plant size prior to test. Plants were inoculated with a spore suspension 24 hr after fungicide treatments. Inoculated plants were kept in a dew chamber at 22° C. for 48 hr then incubated in a greenhouse set at 24° C. under a clear plastic hood with bottom ventilation until disease symptoms were fully expressed. Fungicide formulation, application and disease assessment on the sprayed leaves followed the procedures as described in the Example A.

Test [4] has as its system Mycosphaerella graminicola; anamorph: Septoria tritici. The experiment in a line: Fungicidal activity: leaf blotch of wheat (SEPTTR), wheat seedlings. Conditions: Zymoseptoria tritici, 100 ppm, wheat. In a few lines: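 Percent control derives from disease severity on treated versus untreated first leaves, rated 0–100% when symptoms were fully expressed on untreated plants. Yuma seedlings were inoculated with S. tritici spores either before or after spraying to run-off. The spray was acetone solution diluted 1:9 in water with 110 ppm Triton X-100. Infection took place in 100% RH dew chambers, then a 20 °C greenhouse.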

Test [5] has as its system Glomerella lagenarium; anamorph: Colletotrichum lagenarium. The experiment in a line: Fungicidal activity: cucumber anthracnose (COLLLA). The conditions noted are these: Colletotrichum orbiculare, 24 h, 1 Day Protectant, read-out: Disease Control COLLLA 1DP. Here is the method:
Technical grades of materials were dissolved in acetone, which were then mixed with nine volumes of water containing 110 ppm Triton X-100. The fungicide solutions were applied onto wheat seedlings using an automated booth sprayer to run-off. All sprayed plants were allowed to air dry prior to further handling. Wheat plants (variety Yuma) were grown from seed in a greenhouse in 50% mineral soil/50% soil-less Metro mix until the first leaf was fully emerged, with 7-10 seedlings per pot. These plants were inoculated with an aqueous spore suspension of Septoria tritici either prior to or after fungicide treatments. After inoculation the plants were kept in 100% relative humidity (one day in a dark dew chamber followed by two to three days in a lighted dew chamber at 20° C.) to permit spores to germinate and infect the leaf. The plants were then transferred to a greenhouse set at 20° C. for disease to develop. When disease symptoms were fully expressed on the 1st leaves of untreated plants, infection levels were assessed on a scale of 0 to 100 percent disease severity. Percent disease control was calculated using the ratio of disease severity on treated plants relative to untreated plants. Evaluation of Fungicidal Activity: Cucumber Anthracnose (Glomerella lagenarium; Anamorph: Colletotrichum lagenarium; Bayer Code COLLLA) Cucumber seedlings (variety Bush Pickle) were propagated in soil-less Metro mix, with each pot having one plant, and used in the test when 12 to 14 days old. Test plants were inoculated with an aqueous spore suspension of Colletotrichum lagenarium 24 hr after fungicide treatments. After inoculation the plants were kept in a dew room at 22° C. with 100% relative humidity for 48 hr to permit spores to germinate and infect the leaf. The plants were then transferred to a growth room set at 22° C. for disease to develop. Fungicide formulation, application and disease assessment on the sprayed leaves followed the procedures as described in the Example A.

[6] abbreviates: 24 h, 1 Day Protectant, read-out: Disease Control SEPTTR 1DP.
The mark [7] stands for this setting: 72 h, 3 Day Curative, read-out: Disease Control SEPTTR 3DC.

Regarding `COc1ccnc(C(=O)NC2COC[C@H](OCc3ccccc3)[C@@H](OCc3ccccc3)[C@H](C)OC2=O)c1OCOC(C)=O` (stereo partly shown) [Compound 12], the pest or weed control at 100 ppm in test [1], in test [2], in test [3], in test [4] (setting [6]), in test [4] (setting [7]) and in test [5] was 80 to 100% each time.
Regarding `COc1ccnc(C(=O)N[C@H]2COC[C@H](OCC(C)C)[C@@H](Oc3ccccc3)[C@H](C)OC2=O)c1OCOC(C)=O` [Compound 85], the pest or weed control at 100 ppm in test [1], in test [2], in test [3], in test [4] (setting [6]), in test [4] (setting [7]) and in test [5] was 80 to 100% each time.
As for `CCCCO[C@H]1COC[C@H](NC(=O)c2nccc(OC)c2OCOC(C)=O)C(=O)O[C@@H](C)[C@@H]1OCC(F)F` [Compound 55], the pest or weed control at 100 ppm in test [1], in test [2], in test [3], in test [4] (setting [6]), in test [4] (setting [7]) and in test [5] was 80 to 100% in each case.
As for `COc1ccnc(C(=O)N[C@H]2COC[C@H](OC(=O)C(C)C)[C@@H](OC(=O)C(C)C)[C@H](C)OC2=O)c1OCOC(C)=O` [Compound 57], the pest or weed control at 100 ppm was in the range of 0 to 80% in test [1]; 80 to 100% in test [2]; 80 to 100% in test [3]; 80 to 100% in test [4] (setting [6]); 80 to 100% in test [4] (setting [7]); 80 to 100% in test [5].
For `CCCO[C@H]1COC[C@H](NC(=O)c2nccc(OC)c2OCOC(C)=O)C(=O)O[C@@H](C)[C@@H]1Oc1ccccc1` [Compound 221], the pest or weed control at 100 ppm in test [2], in test [3], in test [4] (setting [6]), in test [4] (setting [7]) and in test [5] was 80 to 100% in each case.
For the compound `COc1ccnc(C(=O)N[C@H]2COC[C@H](OCC(C)C)[C@@H](OC3CCCCC3)[C@H](C)OC2=O)c1OCOC(C)=O` [Compound 77], the pest or weed control at 100 ppm in test [1], in test [2], in test [3], in test [4] (setting [6]), in test [4] (setting [7]) and in test [5] was 80 to 100% in each case.
On to `CCCCO[C@H]1COC[C@H](NC(=O)c2nccc(OC)c2OCOC(C)=O)C(=O)O[C@@H](C)[C@@H]1OCCOC` [Compound 54], for which the pest or weed control at 100 ppm in test [1] lay in the range of 80 to 100%; in test [2], 0 to 80%; in test [3], 0 to 80%; in test [4] (setting [6]), 0 to 80%; in test [4] (setting [7]) it was 0 to 80%; in test [5] it was 80 to 100%.
Take `COc1ccnc(C(=O)N[C@H]2COC[C@H](OCC(C)C)[C@@H](OCC(C)C)[C@H](C)OC2=O)c1OCOC(C)=O` [Compound 3, (2-((3S,7S,8S,9S)-7,8-diisobutoxy-9-methyl-2-oxo-1,5-dioxonan-3-ylcarbamoyl)-4-methoxypyridin-3-yloxy)methyl]: the pest or weed control at 100 ppm in test [1], in test [2], in test [3], in test [4] (setting [6]), in test [4] (setting [7]) and in test [5] was 80 to 100% each time.
Turning to `COc1ccnc(C(=O)N[C@H]2COC[C@H](Oc3ccccc3)[C@@H](Oc3ccccc3)[C@H](C)OC2=O)c1OCOC(C)=O` [Compound 84], the pest or weed control at 100 ppm in test [1], in test [2], in test [3], in test [4] (setting [6]), in test [4] (setting [7]) and in test [5] was 80 to 100% throughout.
For the compound `COc1ccnc(C(=O)N[C@H]2COC[C@H](Oc3ccc(F)cc3)[C@@H](Oc3ccc(F)cc3)[C@H](C)OC2=O)c1OCOC(C)=O` [Compound 231], the pest or weed control at 100 ppm in test [1] was in the range of 80 to 100%; in test [2] it was 80 to 100%; in test [3], 0 to 80%; in test [5] it was 80 to 100%.
As for `COc1ccnc(C(=O)N[C@H]2COC[C@H](OCC(C)C)[C@@H](OCC(C)C)[C@H](C)OC2=O)c1OCOC(=O)C(C)C` [Compound 2], the pest or weed control at 100 ppm in test [3] lay in the range of 0 to 80%; in test [4] (setting [6]), 80 to 100%; in test [4] (setting [7]) it was 80 to 100%.
For the compound `CCCO[C@H]1[C@H](C)OC(=O)[C@@H](NC(=O)c2nccc(OC)c2OCOC(C)=O)COC[C@@H]1Oc1ccccc1` [Compound 222], the pest or weed control at 100 ppm in test [2], in test [3], in test [4] (setting [6]), in test [4] (setting [7]) and in test [5] was 80 to 100% in each case.
With `COc1ccnc(C(=O)N[C@H]2COC[C@H](Oc3ccc(F)cc3)[C@@H](Oc3ccc(F)cc3)[C@H](C)OC2=O)c1OC(C)=O` [Compound 229, 2-(((3S,7S,8S,9S)-7,8-bis(4-fluorophenoxy)-9-methyl-2-oxo-1,5-dioxonan-3-yl)carbamoyl)-4-methoxypyridin-3-yl acetate], the pest or weed control at 100 ppm in test [1], in test [2], in test [3] and in test [5] was 80 to 100% throughout.
As for `COc1ccnc(C(=O)N[C@H]2COC[C@H](OC)[C@@H](OC)[C@H](C)OC2=O)c1OCOC(C)=O` [Compound 65], the pest or weed control at 100 ppm in test [1], in test [3], in test [4] (setting [7]) and in test [5] was 0 to 80% each time.

The values are drawn from patent US9144239B2, “Macrocyclic picolinamides as fungicides” (DOW AGROSCIENCES LLC, priority 2012, dated 2015).
